Series [1] has as its system HTB-54 (lung) cancer cell line. Nature of the series: MTT cell viability assay, HTB-54. It counts as cell-based, human. Particulars: for activity at 10 µM / activity at 50 µM: Homo sapiens, HTB-54, 48 h; for activity at 10 µM: read-out: Cell growth %, HTB-54, 10 µM, 48 h, MTT; for activity at 50 µM: read-out: Cell growth %, HTB-54, 50 µM, 48 h, MTT. A general note: Tetrazolium dyes change colour on reduction, which living cells bring about.

The test system of series [2] is MDA-MB-231 (breast) cancer cell line. As to the kind of experiment: MTT cell viability assay, MDA-MB-231. It counts as cell-based, human. Particulars: for activity at 10 µM / activity at 50 µM: Homo sapiens, MDA-MB-231, 48 h; for activity at 10 µM: read-out: Cell growth %, MDA-MB-231, 10 µM, 48 h, MTT; for activity at 50 µM: read-out: Cell growth %, MDA-MB-231, 50 µM, 48 h, MTT. The gist of the method: (§1)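 MDA-MB-231, HTB-54 and DU-145 grown in RPMI 1640, HT-29 in McCoy's 5A (10% FBS). Output is % cell growth; IC50 determined; ≥3 experiments in quadruplicate.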

The test system of series [3] is HTB-54 (lung) cancer cell line. The arrangement: method as in PMID 22397496. The settings on record: cited from earlier work.
The test system of series [4] is non-malignant BEAS-2B lung cell line. The arrangement: method as in doi:10.30918/IRJMMS.72.19.022. The settings on record: cited from earlier work.
Series [5] has as its system DU-145 (prostate) cancer cell line. Nature of the series: MTT cell viability assay, DU-145. Type of series: cell-based, human. Particulars: for activity at 10 µM / activity at 50 µM: Homo sapiens, DU-145, 48 h; for activity at 10 µM: read-out: Cell growth %, DU-145, 10 µM, 48 h, MTT; for activity at 50 µM: read-out: Cell growth %, DU-145, 50 µM, 48 h, MTT. An outline of the steps: as §1

The nature of series [6]: DPPH radical scavenging assay. It counts as biochemical. The gist of the method: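 Acylselenoureas at 0.003 and 0.03 mg/mL (final dilutions from DMSO stock, via methanol) mixed with DPPH• prepared at 0.04 mg/mL in methanol. Absorbance decrease at 517 nm followed 0–120 min; % scavenging calculated relative to negative control, triplicates.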
(DPPH is a stable violet radical that fades when it is reduced.)

Series [7] deals with HT-29 (colon) cancer cell line. As to the kind of experiment: MTT cell viability assay, HT-29. Type of series: cell-based. The settings on record: Homo sapiens, HT-29, 48 h, read-out: Cell growth %; for activity at 10 µM: HT-29, 10 µM; for activity at 50 µM: HT-29, 50 µM. The gist of the method:
as §1

Series [8] deals with MDA-MB-231, HT-29, HTB-54 and DU-145 cancer cell lines. As to the kind of experiment: MTT cell viability assay, statements over the panel of cancer cell lines. Type of series: cell-based, human. The settings on record: 10 µM, over the four cancer cell lines. Here is the method: Cell lines were purchased from the American Type Culture Collection (ATCC). Cell lines MDA-MB-231, HTB-54, DU-145, and BEAS-2B were cultured in RPMI 1640 medium (Gibco, Thermo Fisher Scientific, Gaithersburg, MD, USA) supplemented with 10% fetal bovine serum (FBS; Gibco), 100 units/mL penicillin, and […] streptomycin (Gibco). HT-29 cell line was grown in McCoy’s 5A (Gibco), 10% FBS, 100 units/mL penicillin, and 100 μg/mL streptomycin. Cells were maintained at 37 °C and 5% CO2. The culture medium was changed every three days.
The cell viability of each compound was measured by MTT colorimetric assay. Each compound was dissolved in DMSO at a concentration of 0.01 M. Each compound was tested at two different concentrations (10 and 50 µM) in MDA-MB-231 (breast), HTB-54 (lung), DU-145 (prostate), and HT-29 (colon) human cancer cell lines. Serial dilutions were prepared with supplemented culture medium. […] IC50 and selectivity indexes (SI) were determined.
Briefly, 1 × 10^4 tumor cells per well were grown in 96-well plates for 24 h. Then, these cells were incubated for 48 h with either DMSO (control) or a different concentration of each of the tested compounds. The cell viability was determined by adding 20 μL of MTT two hours and a half before the termination point. After this time, the culture medium was removed. The resulting formazan crystals were dissolved in 50 μL of DMSO, and the absorbance was measured at 570 nm. Results are expressed as % cell growth. The data were obtained from at least three independent experiments performed in quadruplicate.

The values below come from PMC10376326, “Novel Acylselenourea Derivatives: Dual Molecules with Anticancer and Radical Scavenging Activity” (Antioxidants, 2023).

What is called IC50 is the concentration needed to halve the response being measured. In [1] (IC50 (BEAS-2B)/IC50 (HTB-54)), `N.N.[Cl][Pt][Cl]` [Cisplatin, reference compound] gave an SI of 0.63. In addition, the IC50 was 5.5 ± 0.5 µM in series [2] (Breast, MTT, 48 h, read-out: IC50 MDA-MB-231); 13.7 µM in series [3]; 8.63 µM in [4]; 6.2 ± 0.1 µM in [5] (Prostate, MTT, 48 h, read-out: IC50 DU-145).
A word on the inhibition: it is the share of the control response that was lost under treatment. Low readings indicate a response near the control, high ones a response far below the control. Broadly, the melting point is the temperature of the solid-liquid transition. With `C=CCNC(=[Se])NC(=O)/C=C/c1ccco1` [Compound 3.II, (E)-N-(allylcarbamoselenoyl)-3-(furan-2-yl)acrylamide], the melting point lay within 104 to 105 °C. Moreover, in [1], the activity at 10 µM is 73.1 ± 3% and the activity at 50 µM stood at 35.4 ± 8.9%. In addition, in [2], the activity at 10 µM amounted to 79.6 ± 7.7% and the activity at 50 µM was 14.1 ± 5.8%. The same molecule returned an inhibition in series [6] (0.003 mg/mL, 0 min) of 0%. In series [6] (0.003 mg/mL, 5 min), this molecule displayed an inhibition of 0%. Further, in series [6] (0.003 mg/mL, 15 min), the inhibition stood at 0%. In series [6] (0.003 mg/mL, 30 min), this molecule registered an inhibition of 0.5 ± 2.9%. Also, the inhibition in [6] (0.003 mg/mL, 60 min) was determined as 1.7 ± 2.9%. The molecule further gave an inhibition in series [6] (0.003 mg/mL, 90 min) of 2.5 ± 2.9%. The same molecule came in with an inhibition in series [6] (0.003 mg/mL, 120 min) of 3.3 ± 2.9%. The inhibition in series [6] (0.03 mg/mL, 0 min) was found to be 0.7 ± 2.7%. This molecule also came in with an inhibition in [6] (0.03 mg/mL, 5 min) of 5.2 ± 1.8%. In [6] (0.03 mg/mL, 15 min), this molecule had an inhibition of 9 ± 1.6%. In [6] (0.03 mg/mL, 30 min), this molecule displayed an inhibition of 14.3 ± 1.1%. In addition, in series [6] (0.03 mg/mL, 60 min), the inhibition was determined as 23.7 ± 0.8%. Moreover, the inhibition in [6] (0.03 mg/mL, 90 min) is 31.7 ± 0.1%. In addition, the inhibition in series [6] (0.03 mg/mL, 120 min) stood at 39.6 ± 0.1%. In series [7], the activity at 10 µM amounted to 63.3 ± 15% and the activity at 50 µM is 33.2 ± 6.1%. Further, in [5], the activity at 10 µM was 93.6 ± 14.7% and the activity at 50 µM stood at 10.4 ± 4.1%. The cell growth % in [8] is given as 54.8–95.0%.
`C=CCNC(=[Se])NC(=O)/C=C/c1cccs1` [Compound 4.II, (E)-N-(allylcarbamoselenoyl)-3-(thiophen-2-yl)acrylamide] yielded a melting point of 104 to 105 °C. In addition, in [1], the activity at 10 µM was found to be 79.2 ± 9.2% and the activity at 50 µM is 44.2 ± 6.2%. Further, in [2], the activity at 10 µM amounted to 81.1 ± 6.7% and the activity at 50 µM came to 17.6 ± 6.6%. Further, the inhibition in series [6] (0.003 mg/mL, 0 min) came out at 0%. Besides, in [6] (0.003 mg/mL, 5 min), the inhibition came out at 0%. In series [6] (0.003 mg/mL, 15 min), this molecule yielded an inhibition of 0%. This molecule also registered an inhibition in series [6] (0.003 mg/mL, 30 min) of 0.5 ± 2.5%. The same molecule yielded an inhibition in series [6] (0.003 mg/mL, 60 min) of 1.7 ± 2.4%. In addition, the inhibition in series [6] (0.003 mg/mL, 90 min) was 2.5 ± 2.4%. Also, in series [6] (0.003 mg/mL, 120 min), the inhibition stood at 3.1 ± 2.3%. The molecule also gave an inhibition in series [6] (0.03 mg/mL, 0 min) of 0.9 ± 2.8%. In series [6] (0.03 mg/mL, 5 min), this molecule had an inhibition of 6.1 ± 1.7%. In addition, the inhibition in series [6] (0.03 mg/mL, 15 min) is 9.9 ± 1.5%. Further, the inhibition in [6] (0.03 mg/mL, 30 min) worked out at 15.5 ± 1.4%. This molecule also had an inhibition in series [6] (0.03 mg/mL, 60 min) of 25.6 ± 1.3%. For the same molecule, the inhibition in [6] (0.03 mg/mL, 90 min) came out at 35 ± 0.6%. The molecule also returned an inhibition in [6] (0.03 mg/mL, 120 min) of 44.3 ± 0.6%. In series [7], the activity at 10 µM was found to be 100 ± 7.1% and the activity at 50 µM was 32.9 ± 5%. Also, in series [5], the activity at 10 µM turned out to be 67.2 ± 7.1% and the activity at 50 µM amounted to 13.8 ± 1.2%.
For the molecule `CCCNC(=[Se])NC(=O)/C=C/c1ccccc1` [Compound 6.I, N-(propylcarbamoselenoyl)cinnamamide], the melting point was 125 to 126 °C. In series [1], the activity at 10 µM amounted to 84.6 ± 5.9% and the activity at 50 µM is 36.2 ± 5.7%. Further, in [2], the activity at 10 µM was 88.4 ± 16.3% and the activity at 50 µM amounted to 23.5 ± 12.9%. In series [6] (0.003 mg/mL, 0 min), the inhibition was found to be 1.5 ± 0.5%. Moreover, the inhibition in series [6] (0.003 mg/mL, 5 min) was 2 ± 0.8%. Further, the inhibition in [6] (0.003 mg/mL, 15 min) came to 2.5 ± 0.8%. This molecule gave an inhibition in series [6] (0.003 mg/mL, 30 min) of 3.1 ± 0.6%. The molecule further returned an inhibition in series [6] (0.003 mg/mL, 60 min) of 4.4 ± 0.6%. This molecule displayed an inhibition in [6] (0.003 mg/mL, 90 min) of 5.6 ± 0.7%. In series [6] (0.003 mg/mL, 120 min), this molecule gave an inhibition of 6.6 ± 0.8%. In addition, the inhibition in series [6] (0.03 mg/mL, 0 min) came out at 2.3 ± 1%. The molecule further registered an inhibition in [6] (0.03 mg/mL, 5 min) of 10.1 ± 1.1%. In addition, the inhibition in series [6] (0.03 mg/mL, 15 min) stood at 15.4 ± 1.3%. Further, in series [6] (0.03 mg/mL, 30 min), the inhibition amounted to 21.8 ± 1.1%. The inhibition in [6] (0.03 mg/mL, 60 min) is 35.1 ± 1.2%. This molecule displayed an inhibition in series [6] (0.03 mg/mL, 90 min) of 50.2 ± 0.8%. The molecule also had an inhibition in series [6] (0.03 mg/mL, 120 min) of 66.4 ± 0.2%. In [7], the activity at 10 µM was 60.4 ± 9.7% and the activity at 50 µM was 25.1 ± 5%. Also, in [5], the activity at 10 µM was found to be 19.5 ± 2% and the activity at 50 µM came out at 12.6 ± 1%.
With `C=CCNC(=[Se])NC(=O)/C=C/c1ccc2c(c1)OCO2` [Compound 9.II, (E)-N-(allylcarbamoselenoyl)-3-(benzo[d][1,3]dioxol-5-yl)acrylamide], the melting point fell in the range of 187 to 188 °C. Moreover, the cell growth % in [1] (HTB-54, 10 µM, 48 h, MTT) stood at 82.8%. Further, in series [1], the activity at 10 µM amounted to 82.8 ± 2.8% and the activity at 50 µM was determined as 60 ± 4.5%. In [2], the activity at 10 µM worked out at 83.8 ± 7.9% and the activity at 50 µM amounted to 71.3 ± 5.3%. Moreover, the inhibition in [6] (0.003 mg/mL, 0 min) came out at 0.1 ± 2.9%. In addition, the inhibition in [6] (0.003 mg/mL, 5 min) was 0.3 ± 2.7%. Moreover, the inhibition in series [6] (0.003 mg/mL, 15 min) amounted to 0.8 ± 2.5%. This molecule gave an inhibition in series [6] (0.003 mg/mL, 30 min) of 1.5 ± 2.4%. The inhibition in series [6] (0.003 mg/mL, 60 min) came to 2.3 ± 2.3%. Besides, the inhibition in series [6] (0.003 mg/mL, 90 min) came out at 3 ± 2.3%. The same molecule showed an inhibition in series [6] (0.003 mg/mL, 120 min) of 3.5 ± 2.3%. This molecule displayed an inhibition in series [6] (0.03 mg/mL, 0 min) of 1.9 ± 1.9%. For the same molecule, the inhibition in [6] (0.03 mg/mL, 5 min) is 6.1 ± 1.7%. In series [6] (0.03 mg/mL, 15 min), this molecule returned an inhibition of 10.1 ± 1.2%. Moreover, the inhibition in [6] (0.03 mg/mL, 30 min) was 14.7 ± 1.1%. The molecule also came in with an inhibition in [6] (0.03 mg/mL, 60 min) of 22.3 ± 1.2%. The same molecule had an inhibition in series [6] (0.03 mg/mL, 90 min) of 29 ± 1.2%. This molecule registered an inhibition in [6] (0.03 mg/mL, 120 min) of 35.2 ± 1.3%. For the same molecule, in series [7], the activity at 10 µM worked out at 113 ± 7.8% and the activity at 50 µM amounted to 103 ± 7.1%. Moreover, in [5], the activity at 10 µM was 110 ± 9% and the activity at 50 µM came out at 69.6 ± 6.1%.
